Results published in patent US8795739B2, “Iron fortified food product and additive” (Magqu Co. Ltd., priority 2012, dated 2014).

Test system: Caco-2 cells
Test: Iron bioavailability test in the in vitro digestion/Caco-2 cell culture system (ferritin ELISA, Bradford total protein)
Type: in vitro ADME, Human
Protocol: The assay followed the guidance of Department of Health, Executive Yuan, R.O.C. (TAIWAN) and was conducted to analyze the cytotoxicity and the iron bioavailability of Fe3O4 microspheres in the in vitro digestion/Caco-2 cell culture system. The iron bioavailability from the test article could be evaluated by an in vitro system including enzymatic digestion, iron uptake and ferritin determination via an Enzyme-linked immunosorbent assay (ELISA).
• Cell line: Human colon adenocarcinoma, clone of Caco-2. BCRC 80182. • Culture medium: Minimum Essential Medium (MEM) without any additional iron, iron conc.<8 μg/L. • Culture condition: 37±1° C. with 5% C02 incubator. • EBSS/MES buffer: Earle's balanced salt solution (EBSS) ? 10 mM MES (2-[4-morpholino]-ethanesulfonic acid) buffer, pH 6.0. • MEM enrichment medium: hydrocortisone (4 mg/L) ? 10 mM PIPES (piperazine-N,N′-bis-[2-ethanesulfonic acid]) ? 1% antibiotic-antimycotic solution ? insulin (5 mg/L) ? sodium selenite (5 μg/L) ? triiodothyronine ([…]) and epidermal growth factor (2 μg//L). • Iron removal solution: 1 mM bathophenanthroline disulfonic acid (BPDS) and 5 mM sodium hydrosulfite were dissolved in the rinse solution. • Rinse solution: 140 mM NaCl ? 5 mM KCI ? 10 mM PIPES, pH 7.0. Grouping:
The test article were two sizes of Fe3O4 microspheres with an average diameter of 800 nanometer (nm) and 3000 nm, respectively. Both microspheres were placed in a buffer with a pH value ranges from 5-7. Preferably, the buffer was water or Phosphate Buffered Saline (PBS). In this experiment, the buffer was Phosphate Buffered Saline.
• The digestion of the test article: 0.5 mL of test article was dissolved in 1 mL of 1 N HCl solution, and incubated at 37±1° C. for 16 hours. The final iron concentration was 100 μM. Phosphate buffered saline was used as the negative control and treated in the same condition without the test article. • Iron bioavailability test: • i. […] Measured the absorbance at 595 nm with an ELISA reader. • ii. […] Determined by, the human ferritin enzyme immunoassay test kit. • ii. […]

Tested Ferritin (Caco-2 cell lysate, 24 hours treatment, 50 μM FeSO4 (positive control)): 61.1 ± 1.6 ng/mL | Calibrated Ferritin (ferritin calibrated by total protein, Caco-2, 24 hours, 50 μM FeSO4 (positive control)): 255.9±15.4 ng/mg protein | Iron availability (relative to positive control, Caco-2, 24 hours, 50 μM FeSO4): 100%
SMILES: O=S(=O)([O-])[O-].[Fe+2] [FeSO4]
